Experimental data published in patent publication US5821231A, “CS-1 peptidomimetics, compositions and methods of using same” (Cytel Corporation, priority 1995, dated 1998).
Square brackets hold non-standard residues; d marks the D form. Peptide text beside a SMILES is read from it. * marks the point of attachment. NMeD = CN[C@@H](CC(=O)O)C(=O)O; Morpholide = C1CN(*)CCO1; PhAc = O=C(Cc1ccccc1)*

What was measured:
[1] = test system: New Zealand white rabbits; test: Treatment of asthmatic rabbits (house dust mite antigen challenge, crossover); format: in vivo, rabbit; settings: 100 mg/kg nebulizer
Experimental: Six New Zealand white rabbits were immunized with house dust mite antigen from birth through four months of age. Upon immunization, three rabbits received a single nebulizer administration of the inhibitor compound, Compound ID No. 1051.01, N-phenylacetyl-Leu-Asp-Phe-morpholinamide in aqueous 50 percent ethanol as diluent in an amount of 100 mg/kg, and the other three received diluent alone. All of the rabbits were challenged with house dust mite antigen about 15-30 minutes after administration of the compound, with those animals not receiving compound serving as controls.
Once immunized and challenged, the inflammatory state subsides to a basal level within about three weeks. The three animals used as controls were thereafter used as subjects for receipt of an inhibitor compound, and the three rabbits that initially received the compound can serve as controls.
Such a crossover study was done here. […]
Initial pulmonary function, measured by dynamic compliance (Cdyn) and lung resistance (RL), and bronchoalveolar lavage (BAL) to obtain an effector cell count, here eosinophils, were conducted prior to administration of the compound or diluent for both portions of this crossover study. […]

BALB/c mice = test: Adoptive transfer delayed type hypersensitivity in mice (oxazolone); format: in vivo, mouse; settings: expanded study; versus vehicle alone
Experimental: An adoptive transfer delayed-type hypersensitivity murine model has been developed using splenic T cells primed to oxazolone. This model is described in Elices et al., Clin. Exp. Rheum., 11(Suppl. 8):577-580 (1993), whose procedures were followed here.
Thus, BALB/c mice were shaved on the belly and painted (50 μl on the belly and 5 μl on each paw) with three percent oxazolone in acetone/olive oil (4:1) at days zero and 1. At day 5, the mice were sacrificed, their spleens removed, and splenic T cells were obtained via nylon wool columns.
Normal saline or saline containing 25×10^6 /animal of the oxazolone-immune T cells were separately injected into naive mice. The mice were then challenged by painting 10 μl of 2 percent oxazolone onto one ear each. All procedures were carried out under sterile conditions and in endotoxin-free buffers.
Prior to challenge or saline injection, the mice were implanted with pumps that subcutaneously administered normal saline, normal saline containing the compound, Compound ID No. 896.52, N-phenylacetyl-Leu-Asp-Phe-D-Pro-NH2, or normal saline containing a compound with a scrambled sequence continually at 6 mg/kg/day for a 24-hour time period. The swelling diameter at the site of challenge or saline injection was measured with a microcaliper 24 hours thereafter.
An expanded study was carried out as described above except that a scrambled compound control was not used as a control for further inhibitor compounds of Table 1 with larger groups of mice. Statistical analyses were carried out versus injection of vehicle alone.

VLA-4 [2] = target: T1, VLA-4 (Homo sapiens, UniProt P05556+P13612); test: In vitro binding assay: 51Cr-labeled Jurkat cells to solid phase-bound CS-1 compound (SEQ ID NO:1); format: cell-based; design: inflammatory cells that contain the VLA-4 receptor [Jurkat cells; host or cells: Jurkat cells (human T lymphoblastic line); settings: binding inhibition potency (IC50) relative to standard compound of SEQ ID NO:3 = 1; about one-tenth or less assigned zero
T1 sequence (P13612 34-1032): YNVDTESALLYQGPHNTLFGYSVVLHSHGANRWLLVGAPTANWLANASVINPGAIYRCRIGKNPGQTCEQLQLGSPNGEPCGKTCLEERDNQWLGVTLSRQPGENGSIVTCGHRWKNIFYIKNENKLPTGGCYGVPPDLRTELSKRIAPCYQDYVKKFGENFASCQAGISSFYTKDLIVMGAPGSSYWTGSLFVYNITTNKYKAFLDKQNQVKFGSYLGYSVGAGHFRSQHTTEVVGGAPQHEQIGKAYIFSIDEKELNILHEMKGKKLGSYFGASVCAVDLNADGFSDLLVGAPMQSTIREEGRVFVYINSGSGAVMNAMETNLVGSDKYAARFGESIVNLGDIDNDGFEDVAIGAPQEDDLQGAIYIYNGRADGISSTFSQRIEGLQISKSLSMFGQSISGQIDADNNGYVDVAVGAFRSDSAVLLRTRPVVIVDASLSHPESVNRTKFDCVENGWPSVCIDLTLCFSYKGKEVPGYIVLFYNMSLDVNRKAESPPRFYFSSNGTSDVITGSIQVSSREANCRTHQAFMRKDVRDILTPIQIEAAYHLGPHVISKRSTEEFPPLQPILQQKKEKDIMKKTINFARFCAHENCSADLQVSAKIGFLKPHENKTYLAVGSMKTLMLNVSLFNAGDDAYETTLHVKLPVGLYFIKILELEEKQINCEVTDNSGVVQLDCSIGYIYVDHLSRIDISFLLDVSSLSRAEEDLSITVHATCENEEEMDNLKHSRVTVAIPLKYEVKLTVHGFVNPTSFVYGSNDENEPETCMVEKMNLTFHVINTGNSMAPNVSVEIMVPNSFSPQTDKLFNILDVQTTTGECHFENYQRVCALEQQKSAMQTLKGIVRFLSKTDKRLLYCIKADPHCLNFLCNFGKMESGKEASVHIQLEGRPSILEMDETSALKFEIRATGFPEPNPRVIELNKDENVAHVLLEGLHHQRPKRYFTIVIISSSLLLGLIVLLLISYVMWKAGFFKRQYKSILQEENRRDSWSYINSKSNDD
T1 sequence (P05556 21-798): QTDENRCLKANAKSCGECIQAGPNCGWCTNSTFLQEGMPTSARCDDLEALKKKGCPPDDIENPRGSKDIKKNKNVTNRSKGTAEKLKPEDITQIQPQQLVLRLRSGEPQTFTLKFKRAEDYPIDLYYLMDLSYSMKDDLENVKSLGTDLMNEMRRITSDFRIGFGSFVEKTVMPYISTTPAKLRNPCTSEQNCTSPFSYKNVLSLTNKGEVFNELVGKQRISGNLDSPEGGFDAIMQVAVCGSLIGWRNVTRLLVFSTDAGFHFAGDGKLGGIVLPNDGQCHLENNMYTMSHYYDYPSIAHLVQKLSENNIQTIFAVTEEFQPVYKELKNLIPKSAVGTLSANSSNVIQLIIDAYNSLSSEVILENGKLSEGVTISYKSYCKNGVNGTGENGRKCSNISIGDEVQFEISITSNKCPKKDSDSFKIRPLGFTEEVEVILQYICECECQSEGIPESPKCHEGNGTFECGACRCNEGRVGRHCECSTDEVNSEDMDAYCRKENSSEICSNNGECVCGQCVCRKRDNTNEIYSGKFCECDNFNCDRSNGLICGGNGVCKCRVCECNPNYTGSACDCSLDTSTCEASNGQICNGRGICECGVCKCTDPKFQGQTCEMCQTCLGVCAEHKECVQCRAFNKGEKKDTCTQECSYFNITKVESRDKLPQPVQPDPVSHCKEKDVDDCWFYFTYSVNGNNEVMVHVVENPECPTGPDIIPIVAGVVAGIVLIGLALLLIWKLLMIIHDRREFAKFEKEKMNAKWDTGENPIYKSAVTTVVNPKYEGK
Experimental: Binding inhibition is measured here as a concentration of compound that inhibits one-half the binding between a standard number of Jurkat cells and a standard amount of CS-1 compound bound to the surface of a microtiter plate well. Those concentrations are conveniently expressed as IC50 values, smaller numbers indicating a lower concentration required to inhibit 50 percent binding and therefore greater potency. Further specifics of this assay are provided hereinafter.
Jurkat cells (ATCC TIB 152), a human T lymphoblastic line, labeled with ^51 chromium were used to assay in vitro binding inhibition provided by various compounds discussed herein.
The plates were prepared as follows: The 25-mer CS-1 compound (SEQ ID NO:1) dissolved at 0.5-1 μg/ml in a buffer of 0.1M NaHCO3 at pH 9.5 that also contained 10 μg/ml of bovine serum albumin (BSA) or a conjugate of the CS-1 compound linked to ovalbumin (CS-1-OVA) dissolved at 1-2.5 μg/ml in the same buffer was used as the substrate. Each well of the microtiter plates was coated with 50 μl of substrate or buffer alone for controls. The wells were permitted to dry out completely and were then rinsed twice with PBS at pH 7.4. Non-specific binding sites of each well were then blocked using 200 μl per well of RPMI/1 percent BSA for two hours at room temperature.
Jurkat cells (3-5×10^6 cells) were placed into a 15 ml Falcon™ round-bottom tube with a cap. The tube was centrifuged, and the extra medium was then removed.
Two hundred microliters of a ^51 Cr labeling solution were added to the centrifuged cells and maintained in contact with the cells for 90-120 minutes in a warm room. […] Longer contact times provide a greater amount of labeling but lower cell viability.
The labeled cells are washed with (i) complete medium, (ii) 1 mM EDTA/PBS and then (iii) RPM1/1 percent BSA free of serum components. The cells are centrifuged after each washing. The cells are finally resuspended in serum-free RPMI/1 percent BSA at a concentration of 1×10^6 viable cells/ml, which provides a concentration that is diluted by one-half in the assay.
Inhibitor compounds are prepared as stock solutions at 20 mg/ml in DMSO in 1.5 ml cryogenic screwcap vials, and were stored at -70° C. Using Flow™ round-bottom or V-bottom microtiter plates, the inhibitor compounds were prepared at twice the assay concentration in RPMI/1 percent BSA at 60 μl/well.
Four initial dilutions were typically used.
The ^51 Cr-labeled cells ([…] at 60 μl/well) were then admixed with the diluted compound solutions. The admixtures were maintained at room temperature (about 22° C.) for 30 minutes.
One hundred microliters of each inhibitor compound/cell admixture were transferred to the substrate-coated wells. This was done in triplicate for each dilution. The resulting plates were incubated for 30 minutes at 37° C. and then washed gently three times with RPMI/1 percent BSA at 200 μl/well. Binding was observed microscopically, particularly after the second wash.
The bound cells were then lysed by the addition of a 0.5 percent solution of sodium dodecylsulfate in water at 100 μl/well. The resulting solutions were then processed for counting and calculation of IC50 values following usual procedures.
The data of Table 1 are normalized to the binding of SEQ ID NO: 3. […] Multiple assays for the same compound were averaged.

immune T cells = settings: about 50 μg/ml admixed with immune T cells; Ferguson et al.; cited from earlier work
Jurkat T cell line = test: Jurkat cell binding to frozen human rheumatoid arthritis synovial sections; format: cell-based; settings: 10-mer at 500 μg/ml
Experimental: Binding studies were carried out using the Jurkat T cell line and frozen RA synovial sections. […] Stimulated MOLT-4 cells behaved similarly.
The absolute value of that IC50 value is about 0.5 μmolar.

VLA-4 [3] = target: T1, VLA-4; settings: cited from earlier work

CC(C)C[C@H](NC(=O)Cc1ccccc1)C(=O)N[C@@H](CC(=O)O)C(=O)N[C@@H](Cc1ccccc1)C(=O)N1CCOCC1 [1051.01, N-phenylacetyl-Leu-Asp-Phe-morpholinamide] (PhAc-Leu-Asp-Phe-Morpholide)
Cdyn value over six hours after challenge ([1]; FIG. 4A): stayed at about the initial value | RL values over six hours after challenge ([1]; FIG. 4B): remained between the initial value and about 200% of that value

CC(C)C[C@H](NC(=O)Cc1ccccc1)C(=O)N[C@@H](CC(=O)O)C(=O)N[C@@H](Cc1ccccc1)C(=O)N1CCC(O)CC1 [1070.02, .phi.Ac--Leu--Asp--Phe-4-hydroxpiperidinamide]
Percent Inhibition (post-challenge swelling) (BALB/c mice): 29%

CC(C)C[C@H](NC(=O)Cc1ccccc1)C(=O)N[C@@H](CC(=O)O)C(=O)N[C@@H](Cc1ccccc1)C(=O)N1CCN(CC(=O)O)CC1 [1111.06, .phi.Ac--Leu--Asp--Phe-4-N(carboxymethyl)piperazinamide]
Relative Potency (VLA-4 [2]): 2600 | Percent Inhibition (post-challenge swelling) (BALB/c mice): 30%

CC(C)C[C@H](NC(=O)Cc1ccccc1)C(=O)N(C)[C@@H](CC(=O)O)C(=O)N[C@@H](Cc1ccccc1)C(=O)N1CCC[C@@H]1C(N)=O [1190.06] (PhAc-L[NMeD]F[dP]-NH2)
Relative Potency (VLA-4 [2]): 0

CC[C@H](C)[C@H](NC(=O)[C@H](CCC(=O)O)NC(=O)[C@@H]1CCCN1C(=O)CN)C(=O)N[C@@H](CC(C)C)C(=O)N[C@@H](CC(=O)O)C(=O)N[C@H](C(=O)N1CCC[C@H]1C(=O)N[C@@H](CO)C(=O)N[C@H](C(=O)O)[C@@H](C)O)C(C)C [SEQ ID NO:3, GPEILDVPST] (H-GPEILDVPST-OH)
abrogation of a transferred immune response (immune T cells): could abrogate a transferred immune response | inhibition of Jurkat cell adhesion to RA synovial sections (Jurkat T cell line): could be inhibited

Leu-Asp-Val [LDV]
affinity of VLA-4 relative to native CS-1 25-mer (VLA-4 [3]): at least two orders of magnitude lower affinity
